# Assay results taken from ChEMBL document CHEMBL5518248, “Design, Synthesis, and Biological Evaluation of Novel Arylomycins against Multidrug-Resistant Gram-Negative Bacteria” (J Med Chem, 2024).
# Tests used:
# Format in all cases: functional
# Details in all cases: time 18-20 hrs
# Pseudomonas aeruginosa [1] = test: Antibacterial activity against Pseudomonas aeruginosa 19-5 assessed as inhibition of bacterial growth measured after 18 to 20 hrs by broth microdilution method
# Klebsiella pneumoniae [2] = test: Antibacterial activity against Klebsiella pneumoniae 15-5 assessed as inhibition of bacterial growth measured after 18 to 20 hrs by broth microdilution method
# Pseudomonas aeruginosa [3] = test: Antibacterial activity against Pseudomonas aeruginosa 17-1 assessed as inhibition of bacterial growth measured after 18 to 20 hrs by broth microdilution method
# Escherichia coli [4] = test: Antibacterial activity against Escherichia coli 14-2 assessed as inhibition of bacterial growth measured after 18 to 20 hrs by broth microdilution method
# Escherichia coli [5] = test: Antibacterial activity against Escherichia coli 14-4 assessed as inhibition of bacterial growth measured after 18 to 20 hrs by broth microdilution method
# Acinetobacter baumannii [6] = test: Antibacterial activity against Acinetobacter baumannii 17-8 assessed as inhibition of bacterial growth measured after 18 to 20 hrs by broth microdilution method
# Acinetobacter baumannii [7] = test: Antibacterial activity against Acinetobacter baumannii 17-2 assessed as inhibition of bacterial growth measured after 18 to 20 hrs by broth microdilution method
# Escherichia coli [8] = test: Antibacterial activity against Escherichia coli ATCC 35218 assessed as inhibition of bacterial growth measured after 18 to 20 hrs by broth microdilution method
# Klebsiella pneumoniae [9] = test: Antibacterial activity against Klebsiella pneumoniae 15-1 assessed as inhibition of bacterial growth measured after 18 to 20 hrs by broth microdilution method
# Klebsiella pneumoniae [10] = test: Antibacterial activity against Klebsiella pneumoniae 15-4 assessed as inhibition of bacterial growth measured after 18 to 20 hrs by broth microdilution method
MIC (Pseudomonas aeruginosa [1]) [µg/mL],MIC (Klebsiella pneumoniae [2]) [µg/mL],MIC (Pseudomonas aeruginosa [3]) [µg/mL],MIC (Escherichia coli [4]) [µg/mL],MIC (Escherichia coli [5]) [µg/mL],MIC (Acinetobacter baumannii [6]) [µg/mL],MIC (Acinetobacter baumannii [7]) [µg/mL],MIC (Escherichia coli [8]) [µg/mL],MIC (Klebsiella pneumoniae [9]) [µg/mL],MIC (Klebsiella pneumoniae [10]) [µg/mL],Structure (SMILES)
16,0.06,16,0.125,0.06,1,2,≤ 0.03,0.06,0.125,Cc1nc(-c2ccc(SC(C)(C)C)cc2)ncc1C(=O)N[C@@H](CCN)C(=O)N(C)[C@@H]1C(=O)N[C@@H](C)C(=O)N[C@H](C(=O)NCC#N)Cc2ccc(OCCN)c(c2)-c2cc1ccc2OCCN.O=C(O)C(F)(F)F.O=C(O)C(F)(F)F.O=C(O)C(F)(F)F.O=C(O)C(F)(F)F
2,0.125,16,0.125,0.06,0.25,0.5,≤ 0.03,0.06,0.125,CSSC1(c2ccc(-c3ncc(C(=O)N[C@@H](CCN)C(=O)N(C)[C@@H]4C(=O)N[C@@H](C)C(=O)N[C@H](C(=O)NCC#N)Cc5ccc(OCCN)c(c5)-c5cc4ccc5OCCN)c(C)n3)cc2)CCC1.O=C(O)C(F)(F)F.O=C(O)C(F)(F)F.O=C(O)C(F)(F)F.O=C(O)C(F)(F)F
> 64,8,> 64,32,8,,> 64,16,4,16,Cc1nc(-c2ccc(C(C)(C)C)cc2)ncc1C(=O)N[C@@H](CCN)C(=O)N(C)[C@@H]1C(=O)N[C@@H](C)C(=O)N[C@H](C(=O)NCS(=O)(=O)O)Cc2ccc(OCCN)c(c2)-c2cc1ccc2OCCN.Cl.Cl.Cl.Cl
> 64,64,> 64,64,64,> 64,> 64,64,32,64,Cc1nc(-c2ccc(C(C)(C)C)cc2)ncc1C(=O)N[C@@H](CCN)C(=O)N(C)[C@@H]1C(=O)N[C@@H](C)C(=O)N[C@H](NC(=O)CC#N)Cc2ccc(OCCN)c(c2)-c2cc1ccc2OCCN.O=C(O)C(F)(F)F.O=C(O)C(F)(F)F.O=C(O)C(F)(F)F.O=C(O)C(F)(F)F
> 64,1,> 64,1,0.5,8,32,0.5,2,2,Cc1nc(-c2ccc(C(C)(C)C)cc2)ncc1C(=O)N[C@@H](CCN)C(=O)N(C)[C@@H]1C(=O)N[C@@H](C)C(=O)N[C@H](C(=O)NNCC#N)Cc2ccc(OCCN)c(c2)-c2cc1ccc2OCCN.Cl.Cl.Cl.Cl
32,64,> 64,32,32,,> 64,64,64,> 64,Cc1nc(-c2ccc(C(C)(C)C)cc2)ncc1C(=O)N[C@@H](CCN)C(=O)N(C)[C@@H]1C(=O)N[C@@H](C)C(=O)N[C@H](C(=O)NCC#N)c2ccc(OCCN)c(c2)-c2cc1ccc2OCCN.Cl.Cl.Cl.Cl
4,0.06,2,0.06,0.06,0.125,0.5,≤ 0.03,0.06,0.125,Cc1nc(-c2ccc(CSSC(C)C)cc2)ncc1C(=O)N[C@@H](CCN)C(=O)N(C)[C@@H]1C(=O)N[C@@H](C)C(=O)N[C@H](C(=O)NCC#N)Cc2ccc(OCCN)c(c2)-c2cc1ccc2OCCN.O=C(O)C(F)(F)F.O=C(O)C(F)(F)F.O=C(O)C(F)(F)F.O=C(O)C(F)(F)F
8,0.125,8,0.25,0.125,1,1,≤ 0.03,0.25,0.5,C[C@@H]1NC(=O)[C@@H](N(C)C(=O)[C@H](CCN)NC(=O)c2cnc(-c3ccc(CSSC(C)(C)C)cc3)cc2Cl)c2ccc(OCCN)c(c2)-c2cc(ccc2OCCN)C[C@@H](C(=O)NCC#N)NC1=O.O=C(O)C(F)(F)F.O=C(O)C(F)(F)F.O=C(O)C(F)(F)F.O=C(O)C(F)(F)F
4,≤ 0.03,4,≤ 0.03,≤ 0.03,0.5,0.25,≤ 0.03,0.06,0.125,Cc1nc(-c2ccc(CCSSC(C)(C)C)cc2)ncc1C(=O)N[C@@H](CCN)C(=O)N(C)[C@@H]1C(=O)N[C@@H](C)C(=O)N[C@H](C(=O)NCC#N)Cc2ccc(OCCN)c(c2)-c2cc1ccc2OCCN.O=C(O)C(F)(F)F.O=C(O)C(F)(F)F.O=C(O)C(F)(F)F.O=C(O)C(F)(F)F
16,0.125,8,0.06,≤ 0.03,0.5,1,≤ 0.03,0.06,0.125,CCSSCc1ccc(-c2ncc(C(=O)N[C@@H](CCN)C(=O)N(C)[C@@H]3C(=O)N[C@@H](C)C(=O)N[C@H](C(=O)NCC#N)Cc4ccc(OCCN)c(c4)-c4cc3ccc4OCCN)c(C)n2)cc1.O=C(O)C(F)(F)F.O=C(O)C(F)(F)F.O=C(O)C(F)(F)F.O=C(O)C(F)(F)F
> 64,1,> 64,0.5,0.5,,32,0.5,0.5,2,Cc1nc(-c2ccc(C(C)(C)C)cc2)ncc1C(=O)N[C@@H](CCN)C(=O)N(C)[C@@H]1C(=O)N[C@@H](C)C(=O)N[C@H](C(=O)NOCC#N)Cc2ccc(OCCN)c(c2)-c2cc1ccc2OCCN.Cl.Cl.Cl.Cl
> 64,2,> 64,2,1,8,64,1,2,4,Cc1nc(C2CCC3(CC2)CC3)ncc1C(=O)N[C@@H](CCN)C(=O)N(C)[C@@H]1C(=O)N[C@@H](C)C(=O)N[C@H](C(=O)NCC#N)Cc2ccc(OCCN)c(c2)-c2cc1ccc2OCCN.O=C(O)C(F)(F)F.O=C(O)C(F)(F)F.O=C(O)C(F)(F)F.O=C(O)C(F)(F)F
> 64,> 64,> 64,16,16,8,64,16,> 64,> 64,Cc1nc(-c2ccc(C(C)(C)C)cc2)ncc1CC(=O)N[C@@H](CCN)C(=O)N(C)[C@@H]1C(=O)N[C@@H](C)C(=O)N[C@H](C(=O)NCC#N)Cc2ccc(OCCN)c(c2)-c2cc1ccc2OCCN.O=C(O)C(F)(F)F.O=C(O)C(F)(F)F.O=C(O)C(F)(F)F.O=C(O)C(F)(F)F
64,≤ 0.03,> 64,≤ 0.03,0.06,2,4,≤ 0.03,≤ 0.03,0.125,Cc1nc(-c2ccc(C(C)(C)C)cc2)ncc1C(=O)N[C@@H](CCN)C(=O)N(C)[C@@H]1C(=O)N[C@@H](C)C(=O)N[C@H](C(=O)NCC=O)Cc2ccc(OCCN)c(c2)-c2cc1ccc2OCCN.Cl.Cl.Cl.Cl
6,0.25,8,0.25,0.125,1,1,≤ 0.03,0.125,0.5,Cc1cc(-c2ccc(CSSC(C)(C)C)cc2)ncc1C(=O)N[C@@H](CCN)C(=O)N(C)[C@@H]1C(=O)N[C@@H](C)C(=O)N[C@H](C(=O)NCC#N)Cc2ccc(OCCN)c(c2)-c2cc1ccc2OCCN.O=C(O)C(F)(F)F.O=C(O)C(F)(F)F.O=C(O)C(F)(F)F.O=C(O)C(F)(F)F
4,0.125,2,0.06,0.125,0.25,0.5,≤ 0.03,0.25,0.25,CCCCSSc1ccc(-c2ncc(C(=O)N[C@@H](CCN)C(=O)N(C)[C@@H]3C(=O)N[C@@H](C)C(=O)N[C@H](C(=O)NCC#N)Cc4ccc(OCCN)c(c4)-c4cc3ccc4OCCN)c(C)n2)cc1.O=C(O)C(F)(F)F.O=C(O)C(F)(F)F.O=C(O)C(F)(F)F.O=C(O)C(F)(F)F
> 64,> 64,> 64,> 64,> 64,,> 64,> 64,> 64,> 64,Cc1nc(-c2ccc(C(C)(C)C)cc2)ncc1C(=O)N[C@@H](CCN)C(=O)N(C)[C@H]1Cc2ccc(OCCN)c(c2)-c2cc(ccc2OCCN)[C@@H](C(=O)NCC#N)NC(=O)[C@H](C)NC1=O.Cl.Cl.Cl.Cl
> 64,1,> 64,1,1,,64,1,1,2,Cc1nc(-c2ccc(C(C)(C)C)cc2)ncc1C(=O)N[C@@H](CCN)C(=O)N(C)[C@@H]1C(=O)N[C@@H](C)C(=O)N[C@H](C(=O)NCC(=O)O)Cc2ccc(OCCN)c(c2)-c2cc1ccc2OCCN.Cl.Cl.Cl.Cl
> 64,64,> 64,16,16,,> 64,16,32,32,Cc1nc(-c2ccc(C(C)(C)C)cc2)ncc1C(=O)N[C@@H](CCN)C(=O)N(C)[C@@H]1C(=O)NCCC(=O)N[C@H](C(=O)NCC#N)Cc2ccc(OCCN)c(c2)-c2cc1ccc2OCCN.Cl.Cl.Cl.Cl
